Patent US7960349B2 (Bristol-Myers Squibb Company, priority 2006, dated 2011)
*1 amine or outer side, *2 acyl side, *3 side chain or, on linkers, in order; H or OH if unused. Where a SMILES comes first, the peptide text is derived from it. Primed or numbered codes have the meaning given here. [ ]: non-standard residue; d: D form. The star is where a group is joined. ξ: configuration not given here. X1 = 4‑(2′-methylphenyl)‑3‑pyridylalanine, Cc1ccccc1-c1ccncc1C[C@H](N[*:1])C(=O)[*:2]; Ala(6-(2-MePh)pyridin-3-yl) = Cc1ccccc1-c1ccc(C[C@H](N)C(=O)O)cn1; Phe(4-(2-Et-4-HO-Ph)) = CCc1cc(O)ccc1-c1ccc(C[C@H](N)C(=O)O)cc1; Bip(2'-Et-4'-OMe) = CCc1cc(OC)ccc1-c1ccc(C[C@H](N)C(=O)O)cc1; X2 = Cc1ccccc1-c1ncc(C[C@H](N[*:1])C(=O)[*:2])cn1; αMePhe(2,6-F2) = C[C@](N)(Cc1c(F)cccc1F)C(=O)O; αMePhe(2-F) = C[C@](N)(Cc1ccccc1F)C(=O)O; ξαMePhe(2-F) = CC(N)(Cc1ccccc1F)C(=O)O; αMeP = C[C@@]1(C(=O)O)CCCN1; dNMeA = CN[C@H](C)C(=O)O; ξαMeP = CC1(C(=O)O)CCCN1; Aib = CC(C)(N)C(=O)O; Moc = COC(=O)*

Assays:
[1] = Dog pharmacokinetic study; format: in vivo; details: sc 67 μg/kg; vehicle propylene glycol/pH 7.4 phosphate buffer (1:1)
Description: The pharmacokinetic parameters of the Compounds of SEQ ID NO: 9, 118, 151 and 158 were determined in male beagle dogs (n=3-4, 14±1 kg). Following an overnight fast, each animal received the Compounds of SEQ ID NO: 9, 118, 151 and 158 either as an intravenous bolus via femoral vein (67 μg/kg) or by subcutaneous injection given at near the shoulder blades (67 μg/kg). Each animal received both intravenous and subcutaneous doses with a one-week washout between doses following a crossover design. The dosing vehicle for both routes of administration was propylene glycol:pH 7.4 phosphate buffer (50:50) or 0.2 M Tris (pH 8.0). Serial blood samples were collected in EDTA-containing microcentrifuge tubes at predose, 0.083, 0.25, 0.5, 0.75, 1, 2, 4, 6, 8, 24, and 30 hours post-dose after intravenous administration; at predose, 0.25, 0.5, 0.75, 1, 2, 4, 6, 8, 24, and 30 hours post-dose after subcutaneous administration. Approximately 0.3 mL of blood was collected at each time point. Blood samples were immediately centrifuged at 4° C. The obtained plasma was frozen with dry ice and stored at −20° C. Plasma drug levels were determined using the LC-MS/MS assay described below.
Plasma samples from the in vivo dog study were prepared for analysis by precipitating plasma proteins with two volumes of AcCN containing an internal standard. The samples were vortex mixed and the precipitated proteins were removed by centrifugation. The resulting supernatants were transferred to a 96-well plate and 10 μL were injected for TFC-LC/MS/MS analysis.
The TFC-HPLC system (Cohesive TX-1 Flux, Aria 2300 System) consisted of a loading pump, an eluting pump, and a CTC PAL autosampler (Cohesive Technologies, Franklin, Mass.). The columns used were Phenomenex Synergi Fusion-RP (C18, 2.0×50 mm, 4μ) (Phenomenex, Torrance, Calif.) as the analytical column and Turbo-Flow (TF) HTLC Cyclone column (0.5×50 mm) (Cohesive Technologies, Franklin, Mass.) as the extraction column for on-line sample processing. The mobile phase A consisted of 10 mM ammonium formate and 0.1% formic acid in water and mobile phase B consisted of 0.1% formic acid in AcCN. Turbo-Flow Chromatography was used to obtain a cleaner sample. A rapid gradient elution was used for analyte separation. The samples were injected onto the Turbo-Flow HTLC Cyclone column and analytes were separated from biological fluid components with using 100% H2O at 1.5 mL/min. The TF column was back flushed and analytes were back eluted from the TF to HPLC analytical column using a ramp to 60% B over 2 min and held there for 30 seconds at 0.3 mL/min to separate and to elute the analytes from the HPLC column into the mass spectrometer. Both columns were washed for an additional minute and then both columns were re-equilibrated at initial conditions.
The HPLC was interfaced to a Sciex API 4000 mass spectrometer (Applied Biosystems, Foster City, Calif.) and was equipped with a TurboIonspray ionization source. Ultra high purity nitrogen was used as the nebulizing and turbo-gas. The temperature of turbo-gas was set at 300° C. and the interface heater was set at 60° C. Selected Reaction Monitoring (SRM) was used for data acquisition. Multiple charged ion species, i.e. (M+2H)^2+ for Compound of SEQ ID NO: 158 were selected in Q1 and were collisionally dissociated with high purity nitrogen at a pressure of 3.5×10^−3 torr in Q2 to form specific product ions which were subsequently monitored in Q3. The ion transitions and voltages are summarized below (Table 4).
The standard curve concentrations, ranging from 1 to 1000 nM, were analyzed in duplicate. The curves were fitted with a linear regression weighted by reciprocal concentration […]. Quality control (QC) samples, prepared in blank matrix at the same concentrations as the standards were also analyzed in each analytical set. […]

ob/ob mice = test: Intraperitoneal glucose tolerance test (ipGTT) in ob/ob mice after sc injection; format: in vivo, mouse; details: 10 nmol/kg sc; relative to vehicle-treated group
Description: Peptides were dissolved in an appropriate vehicle at a concentration in nmol/ml equivalent to the dose that was to be administered in nmol/kg so that each mouse would receive the same volume/weight of dosing solution. Male C57BL/6-ob/ob mice (10 weeks old) were randomized into groups of 6 mice per group based on fed plasma glucose and body weight. After an overnight fast, mice were weighed and placed in the experimental lab. After 30 min in the environment, the mice were bled via tail tip at −30 min and immediately injected subcutaneously (sc) with vehicle or the peptide dissolved in vehicle (0.1 ml solution/100 g body weight). At time 0 the mice were bled and then injected intraperitoneally with 50% glucose (2 g/kg) to initiate the intraperitoneal glucose tolerance test (ipGTT). The mice were bled 30, 60, 120 and 180 min after the glucose injection. Blood samples were drawn into potassium EDTA, placed on ice during the study and subsequently centrifuged for 10 min at 3000 rpm at 4° C. Plasma samples were diluted 11-fold for glucose analysis in the Cobas System. Another 5 μl plasma sample was diluted 5-fold with 20 μl of Sample Diluent (Insulin ELISA assay kit, Crystal Chem. Inc.) and stored at −20° C. for subsequent analysis using the Ultra Sensitive Mouse Insulin ELISA kit (Crystal Chem Inc.).

Human GLP-1 Receptor = biological target: T1, Human GLP-1 Receptor (Homo sapiens, UniProt P43220); test: Cyclic AMP determination in CHO cells expressing human GLP-1 receptor; format: cell-based; details: human GLP-1 receptor
T1 construct: Full-length human glucagon-like peptide 1 receptor was stably expressed in CHO-K1 cells; expressed in transfected cells; host or cells: CHO-K1 (clone CHO-GLP1R-19)
T1 sequence (P43220 24-463): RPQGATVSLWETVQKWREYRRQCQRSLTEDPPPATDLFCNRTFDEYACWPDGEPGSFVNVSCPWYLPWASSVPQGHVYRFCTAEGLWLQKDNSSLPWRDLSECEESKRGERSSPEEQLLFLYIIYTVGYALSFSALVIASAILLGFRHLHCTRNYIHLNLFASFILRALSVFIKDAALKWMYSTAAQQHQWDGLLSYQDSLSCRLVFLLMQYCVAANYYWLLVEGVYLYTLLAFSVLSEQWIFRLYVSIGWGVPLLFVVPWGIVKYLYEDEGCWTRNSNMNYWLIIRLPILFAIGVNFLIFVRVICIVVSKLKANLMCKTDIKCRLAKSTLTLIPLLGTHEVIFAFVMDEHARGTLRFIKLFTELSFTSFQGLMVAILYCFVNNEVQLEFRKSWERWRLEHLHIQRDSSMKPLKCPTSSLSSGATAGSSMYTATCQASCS
Description: CHO-GLP-1R-19 cells (20,000 in 100 μl of media) were plated into each well of a 96-well tissue culture microtiter plate and incubated overnight in a 5% CO2 atmosphere at 37° C. On the day of the assay, cells were washed once with 100 μl of phosphate-buffered saline (PBS). A Biomek 2000 was used to serially dilute all peptides prior to beginning the assay. Serial dilutions were carried out in 100% DMSO.
50 μl of each cAMP standard was added by hand and 70 μl of mix reagent (Amersham cAMP SPA kit) was added using the multidrop. […] This standard curve was used to convert CPM to pmol of cAMP.
Cell plates and peptide plates were loaded onto the Platemate. The media was aspirated from the wells and discarded. 100 uL per well of the peptide/buffer mixture were then added from the peptide plates to initiate the assay. After 30 min. of incubation the peptide/buffer was removed and 50 uL of the lysis reagent 1 solution was added per well. The plate was kept for one hour at RT or overnight if refrigerated and sealed.
Dose dependence for Compounds was determined at half-log concentrations in duplicate. […] A standard curve was determined using known amounts of cyclic AMP. […] The data were analyzed by nonlinear regression curve fitting (4 parameter sigmoidal dose-response curve) to determine the EC50 of the compounds.

[2] = biological target: Full-length human glucagon-like peptide 1 receptor (human, UniProt P43220 24-463); test: cell-based or functional assay

Molecule	Exposure in dogs (sc@67 μg/kg) [1] [µM·h]	further results
CCc1cc(OC)ccc1-c1ccc(C[C@H](NC(=O)[C@H](CC(=O)O)NC(=O)[C@H](CO)NC(=O)[C@@H](NC(=O)[C@](C)(Cc2ccccc2F)NC(=O)[C@@H](NC(=O)CNC(=O)[C@H](CCC(=O)O)NC(=O)[C@@H](C)N(C)C(=O)[C@@H](N)Cc2c[nH]cn2)[C@@H](C)O)[C@@H](C)O)C(=O)N[C@@H](Cc2ccc(-c3ccccc3C)nc2)C(N)=O)cc1 [SEQ ID NO: 119] (H-H[dNMeA]EGT[αMePhe(2-F)]TSD[Bip(2'-Et-4'-OMe)][Ala(6-(2-MePh)pyridin-3-yl)]-NH2)	1.257	
CCc1cc(OC)ccc1-c1ccc(C[C@H](NC(=O)[C@H](CC(=O)O)NC(=O)[C@H](Cc2c[nH]cn2)NC(=O)[C@@H](NC(=O)[C@](C)(Cc2ccccc2F)NC(=O)[C@@H](NC(=O)CNC(=O)[C@H](CCC(=O)O)NC(=O)[C@]2(C)CCCN2C(=O)[C@@H](N)Cc2c[nH]cn2)[C@@H](C)O)[C@@H](C)O)C(=O)N[C@@H](Cc2ccc(-c3ccccc3C)nc2)C(N)=O)cc1 [SEQ ID NO: 120] (H-H[αMeP]EGT[αMePhe(2-F)]THD[Bip(2'-Et-4'-OMe)][Ala(6-(2-MePh)pyridin-3-yl)]-NH2)	1.116	
CCc1cc(OC)ccc1-c1ccc(C[C@H](NC(=O)[C@H](CC(=O)O)NC(=O)[C@H](CO)NC(=O)[C@@H](NC(=O)[C@](C)(Cc2ccccc2F)NC(=O)[C@@H](NC(=O)CNC(=O)[C@H](CCC(=O)O)NC(=O)C(C)(C)NC(=O)[C@@H](N)Cc2c[nH]cn2)[C@@H](C)O)[C@@H](C)O)C(=O)N[C@@H](Cc2cnc(-c3ccccc3C)nc2)C(N)=O)cc1 [SEQ ID NO: 130] (H-H[Aib]EGT[αMePhe(2-F)]TSD[Bip(2'-Et-4'-OMe)][X2]-NH2)	0.541	
CCc1cc(OC)ccc1-c1ccc(C[C@H](NC(=O)[C@H](CC(=O)O)NC(=O)[C@H](CO)NC(=O)[C@@H](NC(=O)C(C)(Cc2ccccc2F)NC(=O)[C@@H](NC(=O)CNC(=O)[C@H](CCC(=O)O)NC(=O)C2(C)CCCN2C(=O)[C@H](Cc2c[nH]cn2)NC(=O)OC)[C@@H](C)O)[C@@H](C)O)C(=O)N[C@@H](Cc2ccc(-c3ccccc3C)nc2)C(N)=O)cc1 (stereo partly drawn) [SEQ ID NO: 139] (Moc-H[ξαMeP]EGT[ξαMePhe(2-F)]TSD[Bip(2'-Et-4'-OMe)][Ala(6-(2-MePh)pyridin-3-yl)]-NH2)	1.603	Potency in ob/ob mice: % AUC Reduction in Plasma Glucose in an IP Glucose Tolerance Test after SC Injection of Compound (ob/ob mice): −63% (p < 0.01)
CCc1cc(OC)ccc1-c1ccc(C[C@H](NC(=O)[C@H](CC(=O)O)NC(=O)[C@H](CO)NC(=O)[C@@H](NC(=O)[C@](C)(Cc2c(F)cccc2F)NC(=O)[C@@H](NC(=O)CNC(=O)[C@H](CCC(=O)O)NC(=O)[C@]2(C)CCCN2C(=O)[C@H](Cc2c[nH]cn2)NC(=O)OC)[C@@H](C)O)[C@@H](C)O)C(=O)N[C@@H](Cc2ccc(-c3ccccc3C)nc2)C(N)=O)cc1 [SEQ ID NO: 140] (Moc-H[αMeP]EGT[αMePhe(2,6-F2)]TSD[Bip(2'-Et-4'-OMe)][Ala(6-(2-MePh)pyridin-3-yl)]-NH2)	0.283	
CCc1cc(OC)ccc1-c1ccc(C[C@H](NC(=O)[C@H](CC(=O)O)NC(=O)[C@H](CO)NC(=O)[C@@H](NC(=O)[C@](C)(Cc2ccccc2F)NC(=O)[C@@H](NC(=O)CNC(=O)[C@H](CCC(=O)O)NC(=O)[C@@H](C)NC(=O)[C@@H](N)Cc2c[nH]cn2)[C@@H](C)O)[C@@H](C)O)C(=O)N[C@@H](Cc2ccc(-c3ccccc3C)nc2)C(N)=O)cc1 [SEQ ID NO: 149] (H-H[dA]EGT[αMePhe(2-F)]TSD[Bip(2'-Et-4'-OMe)][Ala(6-(2-MePh)pyridin-3-yl)]-NH2)	0.94	
CCc1cc(OC)ccc1-c1ccc(C[C@H](NC(=O)[C@H](CC(=O)O)NC(=O)[C@H](CO)NC(=O)[C@@H](NC(=O)[C@](C)(Cc2ccccc2F)NC(=O)[C@@H](NC(=O)CNC(=O)[C@H](Cc2c[nH]cn2)NC(=O)C(C)(C)NC(=O)[C@@H](N)Cc2c[nH]cn2)[C@@H](C)O)[C@@H](C)O)C(=O)N[C@@H](Cc2ccc(-c3ccccc3C)nc2)C(N)=O)cc1 [SEQ ID NO: 150] (H-H[Aib]HGT[αMePhe(2-F)]TSD[Bip(2'-Et-4'-OMe)][Ala(6-(2-MePh)pyridin-3-yl)]-NH2)	0.979	
CCc1cc(O)ccc1-c1ccc(C[C@H](NC(=O)[C@H](CC(=O)O)NC(=O)[C@H](Cc2c[nH]cn2)NC(=O)[C@@H](NC(=O)C(C)(Cc2ccccc2F)NC(=O)[C@@H](NC(=O)CNC(=O)[C@H](CCC(=O)O)NC(=O)C2(C)CCCN2C(=O)[C@H](Cc2c[nH]cn2)NC(=O)OC)[C@@H](C)O)[C@@H](C)O)C(=O)N[C@@H](Cc2ccc(-c3ccccc3C)nc2)C(N)=O)cc1 (stereo partly drawn) [SEQ ID NO: 157] (Moc-H[ξαMeP]EGT[ξαMePhe(2-F)]THD[Phe(4-(2-Et-4-HO-Ph))][Ala(6-(2-MePh)pyridin-3-yl)]-NH2)		Emax (Human GLP-1 Receptor; CHO, percent of maximal GLP-1 stimulated activity): 99.4%; Mean Hill (Human GLP-1 Receptor): 1.9
Moc-H[αMeP]EGT[αMePhe(2-F)]THD[Phe(4-(2-Et-4-HO-Ph))][X1]-NH2 [Compound of SEQ ID NO: 157]		Mean EC50 (nM), stimulation of cAMP synthesis in CHO cells [2]: 0.026 nM; Mean Emax (%), stimulation of cAMP synthesis in CHO cells [2]: 99.4%
